Reference: PubChem BioAssay AID1259407 (Chemical Carcinogenesis Research Information System (CCRIS), 2018)
Activity calls are given as the source filed them. The rule behind the calls is not given here.

Tested on: CCRIS mutagenicity, Ames/micronucleus/aberration tests
Experiment: CCRIS mutagenicity studies
[1] = Test System: AMES SALMONELLA TYPHIMURIUM, Strain/Indicator: TA98, Metabolic Activation: NONE, Method: PREINCUBATION
[2] = Test System: AMES SALMONELLA TYPHIMURIUM, Strain/Indicator: TA100, Metabolic Activation: NONE, Method: PREINCUBATION
[3] = Test System: AMES SALMONELLA TYPHIMURIUM, Strain/Indicator: TA1535, Metabolic Activation: NONE, Method: PREINCUBATION
[4] = Test System: AMES SALMONELLA TYPHIMURIUM, Strain/Indicator: TA1537, Metabolic Activation: NONE, Method: PREINCUBATION

SMILES: O=c1ccc(=O)[nH][nH]1
- mutagenic call (End Point: IN VITRO CHROMOSOMAL ABERRATIONS, Test System: HUMAN PERIPHERAL BLOOD LYMPHOCYTES, Metabolic Activation: NONE): inactive; negative
- mutagenic call (End Point: IN VITRO MICRONUCLEUS, Test System: HUMAN PERIPHERAL BLOOD LYMPHOCYTES, Metabolic Activation: NONE): inactive; negative
- mutagenic call (End Point: IN VITRO MICRONUCLEUS, Test System: HUMAN PERIPHERAL BLOOD LYMPHOCYTES, Metabolic Activation: S-9): inactive; negative
- mutagenic call (Test System: AMES SALMONELLA TYPHIMURIUM, Strain/Indicator: TA98, Metabolic Activation: HAMSTER, LIVER, S-9, AROCLOR 1254 (10%), Method: PREINCUBATION): inactive; negative
- mutagenic call [1]: inactive; negative
- mutagenic call (Test System: AMES SALMONELLA TYPHIMURIUM, Strain/Indicator: TA98, Metabolic Activation: RAT, LIVER, S-9, AROCLOR 1254 (10%), Method: PREINCUBATION): inactive; negative
- mutagenic call (Test System: AMES SALMONELLA TYPHIMURIUM, Strain/Indicator: TA100, Metabolic Activation: HAMSTER, LIVER, S-9, AROCLOR 1254 (10%), Method: PREINCUBATION): inactive; negative
- mutagenic call [2]: inactive; negative
- mutagenic call (Test System: AMES SALMONELLA TYPHIMURIUM, Strain/Indicator: TA100, Metabolic Activation: RAT, LIVER, S-9, AROCLOR 1254 (10%), Method: PREINCUBATION): inactive; negative
- mutagenic call (Test System: AMES SALMONELLA TYPHIMURIUM, Strain/Indicator: TA1535, Metabolic Activation: HAMSTER, LIVER, S-9, AROCLOR 1254 (10%), Method: PREINCUBATION): inactive; negative
- mutagenic call [3]: inactive; negative
- mutagenic call (Test System: AMES SALMONELLA TYPHIMURIUM, Strain/Indicator: TA1535, Metabolic Activation: RAT, LIVER, S-9, AROCLOR 1254 (10%), Method: PREINCUBATION): inactive; negative
- mutagenic call (Test System: AMES SALMONELLA TYPHIMURIUM, Strain/Indicator: TA1537, Metabolic Activation: HAMSTER, LIVER, S-9, AROCLOR 1254 (10%), Method: PREINCUBATION): inactive; negative
- mutagenic call [4]: inactive; negative
- mutagenic call (Test System: AMES SALMONELLA TYPHIMURIUM, Strain/Indicator: TA1537, Metabolic Activation: RAT, LIVER, S-9, AROCLOR 1254 (10%), Method: PREINCUBATION): inactive; negative

SMILES: Oc1cc(O)cc(O)c1
- mutagenic call (Test System: AMES SALMONELLA TYPHIMURIUM, Strain/Indicator: TA97, Metabolic Activation: NONE, Method: PREINCUBATION): inactive; negative
- mutagenic call (Test System: AMES SALMONELLA TYPHIMURIUM, Strain/Indicator: TA97, Metabolic Activation: RAT, LIVER, S-9, PHENOBARBITAL, Method: PREINCUBATION): inactive; negative
- mutagenic call (Test System: AMES SALMONELLA TYPHIMURIUM, Strain/Indicator: TA98, Metabolic Activation: NONE): inactive; negative
- mutagenic call [1]: inactive; negative
- mutagenic call (Test System: AMES SALMONELLA TYPHIMURIUM, Strain/Indicator: TA98, Metabolic Activation: RAT, LIVER, S-9, PHENOBARBITAL, Method: PREINCUBATION): inactive; negative
- mutagenic call (Test System: AMES SALMONELLA TYPHIMURIUM, Strain/Indicator: TA98, Metabolic Activation: S-9): inactive; negative
- mutagenic call [2]: inactive; negative
- mutagenic call (Test System: AMES SALMONELLA TYPHIMURIUM, Strain/Indicator: TA100, Metabolic Activation: RAT, LIVER, S-9, PHENOBARBITAL, Method: PREINCUBATION): inactive; negative

SMILES: [O]c1nccc(=O)[nH]1
- mutagenic call (Test System: AMES SALMONELLA TYPHIMURIUM, Strain/Indicator: TA100, Metabolic Activation: NONE, Method: STANDARD PLATE): active; positive

SMILES: O=C(/C=C/c1ccccc1O)c1ccc(O)cc1O
- mutagenic call (Test System: Ames Salmonella typhimurium, Strain/Indicator: TA102, Metabolic Activation: None, Method: Preincubation): inactive; negative
- mutagenic call (Test System: Ames Salmonella typhimurium, Strain/Indicator: TA102, Metabolic Activation: Rat, Liver, S-9, Aroclor 1254 in 0.154 M KCl, Method: Preincubation): inactive; negative

SMILES: C=CC(C)=O
- mutagenic call (Test System: AMES SALMONELLA TYPHIMURIUM, Strain/Indicator: TA98, Metabolic Activation: HAMSTER, LIVER, S-9, AROCLOR 1254 (30%), Method: PREINCUBATION): inactive; negative
- mutagenic call [1]: inactive; negative
- mutagenic call (Test System: AMES SALMONELLA TYPHIMURIUM, Strain/Indicator: TA98, Metabolic Activation: RAT, LIVER, S-9, AROCLOR 1254 (30%), Method: PREINCUBATION): inactive; negative
- mutagenic call (Test System: AMES SALMONELLA TYPHIMURIUM, Strain/Indicator: TA100, Metabolic Activation: HAMSTER, LIVER, S-9, AROCLOR 1254 (30%), Method: PREINCUBATION): active; positive
- mutagenic call (Test System: AMES SALMONELLA TYPHIMURIUM, Strain/Indicator: TA100, Metabolic Activation: RAT, LIVER, S-9, AROCLOR 1254 (30%), Method: PREINCUBATION): inactive; negative
- mutagenic call (Test System: AMES SALMONELLA TYPHIMURIUM, Strain/Indicator: TA100, Metabolic Activation: RAT, LIVER, S-9, Method: PREINCUBATION): active; positive
- mutagenic call (Test System: AMES SALMONELLA TYPHIMURIUM, Strain/Indicator: TA102, Metabolic Activation: S-9, Method: STANDARD PLATE): inactive; negative
- mutagenic call (Test System: AMES SALMONELLA TYPHIMURIUM, Strain/Indicator: TA2638, Metabolic Activation: S-9, Method: STANDARD PLATE): active; positive
- mutagenic call (Test System: E. COLI, Strain/Indicator: WP2 (PKM101), Metabolic Activation: S-9, Method: STANDARD PLATE): active; positive
- mutagenic call (Test System: E. COLI, Strain/Indicator: WP2 UVRA (PKM101), Metabolic Activation: S-9, Method: STANDARD PLATE): active; positive

SMILES: O=C1CCCCC1
- mutagenic call (Test System: AMES SALMONELLA TYPHIMURIUM, Strain/Indicator: TA98, Metabolic Activation: HAMSTER, LIVER, S-9, AROCLOR 1254, Method: PREINCUBATION): inactive; negative
- mutagenic call [1]: inactive; negative
- mutagenic call (Test System: AMES SALMONELLA TYPHIMURIUM, Strain/Indicator: TA98, Metabolic Activation: RAT, LIVER, S-9, AROCLOR 1254, Method: PREINCUBATION): inactive; negative
- mutagenic call (Test System: AMES SALMONELLA TYPHIMURIUM, Strain/Indicator: TA100, Metabolic Activation: HAMSTER, LIVER, S-9, AROCLOR 1254, Method: PREINCUBATION): inactive; negative
- mutagenic call [2]: inactive; negative
- mutagenic call (Test System: AMES SALMONELLA TYPHIMURIUM, Strain/Indicator: TA100, Metabolic Activation: RAT, LIVER, S-9, AROCLOR 1254, Method: PREINCUBATION): inactive; negative
- mutagenic call (Test System: AMES SALMONELLA TYPHIMURIUM, Strain/Indicator: TA1535, Metabolic Activation: HAMSTER, LIVER, S-9, AROCLOR 1254, Method: PREINCUBATION): inactive; negative
- mutagenic call [3]: inactive; negative
- mutagenic call (Test System: AMES SALMONELLA TYPHIMURIUM, Strain/Indicator: TA1535, Metabolic Activation: RAT, LIVER, S-9, AROCLOR 1254, Method: PREINCUBATION): inactive; negative
- mutagenic call (Test System: AMES SALMONELLA TYPHIMURIUM, Strain/Indicator: TA1537, Metabolic Activation: HAMSTER, LIVER, S-9, AROCLOR 1254, Method: PREINCUBATION): inactive; negative
- mutagenic call [4]: inactive; negative
- mutagenic call (Test System: AMES SALMONELLA TYPHIMURIUM, Strain/Indicator: TA1537, Metabolic Activation: RAT, LIVER, S-9, AROCLOR 1254, Method: PREINCUBATION): inactive; negative
- mutagenic call (Test System: Mouse lymphoma, Strain/Indicator: L5178Y (tk+/tk-), Metabolic Activation: None, Method: Suspension/plate): inactive; negative
- mutagenic call (Test System: Mouse lymphoma, Strain/Indicator: L5178Y (tk+/tk-), Metabolic Activation: Rat, Liver, S-9, Aroclor 1254, Method: Suspension/plate): active; positive
